Test results reported in patent publication US9175011B2, “Morpholino substituted urea or carbamate derivatives as MTOR inhibitors” (CELLZOME LIMITED, priority 2011, dated 2015).

Experiments:
mTOR = biological target: T1, mTOR (Homo sapiens, UniProt P42345); experiment: mTOR kinobeads assay (Jurkat cell lysate, dot blot detection); format: binding; settings: read-out: Inhibition values (IC50) mTor
T1 construct: Jurkat cells were homogenized in a Potter S homogenizer in lysis buffer; endogenous in cells; host or cells: Jurkat, clone E6-1 (ATCC TIB-152) lysate
Experimental: (§1) The compounds of the present invention as described were tested in the mTOR kinobeads assay as described below. Briefly, test compounds (at various concentrations) and the affinity matrix (1:1 mixture of beads with immobilized phenylthiazole ligand 1 and beads with immobilized phenylmorpholin-chromen ligand; WO 2009/098021) were added to cell lysate aliquots and allowed to bind to the proteins in the lysate sample. After the incubation time the beads with captured proteins were separated from the lysate. Bound proteins were then eluted and the presence of mTOR, PI3K alpha (PI3Kα), PI3K beta (PI3Kb), PI3K gamma (PI3Kg), PI3K delta (PI3Kd) and DNA-dependent protein kinase (DNA-PK) was detected and quantified using a specific antibody in a dot blot procedure and the Odyssey infrared detection system. Dose response curves for individual kinases were generated and IC50 values calculated. Kinobeads assays for PI3 kinases (WO-A 2008/015013) and for kinase selectivity profiling (WO 2009/098021) have been previously described.
(§2) The affinity matrix (beads with immobilized phenylmorpholin-chromen ligand) was washed three times with 15 ml of 1×DP buffer containing 0.2% NP40 (IGEPAL® CA-630, Sigma, #13021) and then resuspended in 5.5 ml of 1×DP buffer containing 0.2% NP40 (10% beads slurry).
(§3) 5×DP buffer: 250 mM Tris-HCl pH 7.4, 25% Glycerol, 7.5 mM MgCl2, 750 mM NaCl, 5 mM Na3VO4, filter the 5×-lysis buffer through 0.22 μm filter and store in aliquots at −80° C. The 5×DP buffer is diluted to 1×DP buffer containing 1 mM DTT and 25 mM NaF.
(§4) Stock solutions of test compounds were prepared in DMSO. In a 96 well plate 30 μl solution of diluted test compounds at 5 mM in DMSO were prepared. Starting with this solution a 1:3 dilution series (9 steps) was prepared. For control experiments (no test compound) a buffer containing 2% DMSO was used. Compound PI-103 served as a positive control (Calbiochem catalogue number 528100).
(§5) Jurkat cells (ATCC catalogue number TIB-152 Jurkat, clone E6-1) were grown in 1 liter Spinner flasks (Integra Biosciences, #182101) in suspension in RPMI 1640 medium (Invitrogen, #21875-034) supplemented with 10% Fetal Bovine Serum (Invitrogen) at a density between 0.15×10^6 and 1.2×10^6 cells/ml. Cells were harvested by centrifugation, washed once with 1×PBS buffer (Invitrogen, #14190-094) and cell pellets were frozen in liquid nitrogen and subsequently stored at −80° C.
(§6) Jurkat cells were homogenized in a Potter S homogenizer in lysis buffer: 50 mM Tris-HCl, 0.8% NP40, 5% glycerol, 150 mM NaCl, 1.5 mM MgCl2, 25 mM NaF, 1 mM sodium vanadate, 1 mM DTT, pH 7.5. One complete EDTA-free tablet (protease inhibitor cocktail, Roche Diagnostics, 1873580) per 25 ml buffer was added. The material was dounced 10 times using a mechanized POTTER S, transferred to 50 ml falcon tubes, incubated for 30 minutes on ice and spun down for 10 min at 20,000 g at 4° C. (10,000 rpm in Sorvall SLA600, precooled). The supernatant was transferred to an ultracentrifuge (UZ)-polycarbonate tube (Beckmann, 355654) and spun for 1 hour at 100.000 g at 4° C. (33.500 rpm in Ti50.2, precooled). The supernatant was transferred again to a fresh 50 ml falcon tube, the protein concentration was determined by a Bradford assay (BioRad) and samples containing 50 mg of protein per aliquot were prepared. The samples were immediately used for experiments or frozen in liquid nitrogen and stored frozen at −80° C.
(§7) Jurkat cell lysate (approximately 50 mg protein per plate) was thawed in a water bath at room temperature and then kept on ice. To the thawed cell lysate 1×DP 0.8% NP40 buffer containing protease inhibitors (1 tablet for 25 ml buffer; EDTA-free protease inhibitor cocktail; Roche Diagnostics 1873580) was added in order to reach a final protein concentration of 5 mg/ml total protein. The diluted cell lysate was stored on ice. […]

PI3K alpha (PI3Kα) = biological target: T2, PI3K alpha (PI3Kα) (Homo sapiens, UniProt P42336); experiment: kinobeads assay, PI3K alpha; format: binding; settings: Jurkat cell lysate, read-out: Inhibition values (IC50) PI3Ka
T2 construct: Jurkat cells were homogenized in a Potter S homogenizer in lysis buffer; endogenous in cells; host or cells: Jurkat, clone E6-1 (ATCC TIB-152) lysate
Experimental: as §1, §2, §3, §4, §5, §6, §7

PI3K beta (PI3Kb) = biological target: T3, PI3K beta (PI3Kb) (Homo sapiens, UniProt P42338); experiment: kinobeads assay, PI3K beta; format: binding; settings: Jurkat cell lysate, read-out: Inhibition values (IC50) PI3Kb
T3 construct: Jurkat cells were homogenized in a Potter S homogenizer in lysis buffer; endogenous in cells; host or cells: Jurkat, clone E6-1 (ATCC TIB-152) lysate
Experimental: as §1, §2, §3, §4, §5, §6, §7

PI3K gamma (PI3Kg) = biological target: T4, PI3K gamma (PI3Kg) (Homo sapiens, UniProt P48736); experiment: kinobeads assay, PI3K gamma; format: binding; settings: Jurkat cell lysate, read-out: Inhibition values (IC50) PI3Kg
T4 construct: Jurkat cells were homogenized in a Potter S homogenizer in lysis buffer; endogenous in cells; host or cells: Jurkat, clone E6-1 (ATCC TIB-152) lysate
Experimental: as §1, §2, §3, §4, §5, §6, §7

PI3K delta (PI3Kd) = biological target: T5, PI3K delta (PI3Kd) (Homo sapiens, UniProt O00329); experiment: kinobeads assay, PI3K delta; format: binding; settings: Jurkat cell lysate, read-out: Inhibition values (IC50) PI3Kd
T5 construct: Jurkat cells were homogenized in a Potter S homogenizer in lysis buffer; endogenous in cells; host or cells: Jurkat, clone E6-1 (ATCC TIB-152) lysate
Experimental: as §1, §2, §3, §4, §5, §6, §7

[1] = biological target: T6, DNA-dependent protein kinase (DNA-PK) (Homo sapiens, UniProt P78527); experiment: kinobeads assay, DNA-PK; format: binding; settings: Jurkat cell lysate, read-out: Inhibition values (IC50) DNA-PK
T6 construct: Jurkat cells were homogenized in a Potter S homogenizer in lysis buffer; endogenous in cells; host or cells: Jurkat, clone E6-1 (ATCC TIB-152) lysate
Experimental: as §1, §2, §3, §4, §5, §6, §7

[2] = system: S6RP serine-240/244 phosphorylation; experiment: In vitro phospho-S6 cellular assay (HEK293T/17); format: cell-based; settings: Homo sapiens; HEK293T/17 cells, 2 hours, pS6RP Ser240/244; read-out: Inhibition values (IC50) pS6
Description: Activation of mTOR signaling results in phosphorylation of several downstream targets. In cells, mTOR exists in two different protein complexes. The mTOR Complex-1 (mTORC1) phosphorylates and activates S6 Kinase 1 (S6K1) and S6 Kinase 2 (S6K2) (also known as p70S6K) which then phosphorylate S6 Ribosomal Protein (S6RP) (also known as RPS6)3. S6RP is phosphorylated on serine 235, senile 236, serine 240 and serine 244 by both pS6K1 and pS6K2. The mTOR Complex-2 (mTORC2) phosphorylates AKT on serine 473 which activates the AKT signaling pathway.
The assay measures a test compound's inhibition of S6RP serine-240/244 phosphorylation and inhibition of Akt serine-473 phosphorylation in human embryonic kidney derived HEK293T/17 cells (ATCC CRL-11268).
The HEK293T/17 cell line is maintained in DMEM media (Invitrogen catalogue number 41965-039) supplemented with 10% FCS at 37° C. in a 5% CO2 humidified incubator. Cells are seeded in 96-well plates at 40,000 cells/well (pS6RP S240/244 assay) or 80,000 cells/well (pAkt 5473 assay) in 90 μl growth media (DMEM, 2% FCS). Plates are incubated for 1 hour in a humidified incubator to allow the cells to adhere. Cells are treated with 8 concentrations of test compounds or DMSO alone for controls (final DMSO concentration 0.1%) and incubated at 37° C. for 2 hours. Then 20 μl of 5× concentrated lysis buffer (750 mM NaCl, 100 mM Tris pH7.4, 5 mM ADTA, 5 mM EGTA, 5% Triton X-100) is added, plates are sealed and incubated for 15 minutes at 4° C. with gentle shaking After cell lysis, 25 μl cell lysate is transferred to a MesoScale plate coated with an antibody to pS6RP Ser240/244 (MesoScale Discovery K150DGD-3) or an antibody to pAkt Ser 473 (MesoScale Discovery K151DGD-3). Plates have been blocked before by incubation with 150 μl MesoScale Discovery Blocking Solution-A for 1 hour at room temperature followed by washing with 150 μl 1×Tris wash buffer per well. After the transfer of the cell lysate to the MSD plate, the pS6RP (or pAkt) protein is captured on the coated antibody by incubation at room temperature for 1 hour with gentle shaking. After the capture step the plate is washed three times with 150 μl of 1× Tris wash buffer per well. Then 25 μl detection antibody conjugated with a Sulfo-Tag is added and incubated for 1 hour at room temperature with gentle shaking. Subsequently the antibody solution is removed and the plate is washed 3 times with 150 μl 1×Tris wash buffer per well and 150 μl Read buffer is added. The plates are analysed on a MSD 2400 Plate Reader (MesoScale Discovery). Data analysis is performed using nonlinear regression for a sigmoidal dose-response with a variable slope.

T2 sequence (P42336 whole entry): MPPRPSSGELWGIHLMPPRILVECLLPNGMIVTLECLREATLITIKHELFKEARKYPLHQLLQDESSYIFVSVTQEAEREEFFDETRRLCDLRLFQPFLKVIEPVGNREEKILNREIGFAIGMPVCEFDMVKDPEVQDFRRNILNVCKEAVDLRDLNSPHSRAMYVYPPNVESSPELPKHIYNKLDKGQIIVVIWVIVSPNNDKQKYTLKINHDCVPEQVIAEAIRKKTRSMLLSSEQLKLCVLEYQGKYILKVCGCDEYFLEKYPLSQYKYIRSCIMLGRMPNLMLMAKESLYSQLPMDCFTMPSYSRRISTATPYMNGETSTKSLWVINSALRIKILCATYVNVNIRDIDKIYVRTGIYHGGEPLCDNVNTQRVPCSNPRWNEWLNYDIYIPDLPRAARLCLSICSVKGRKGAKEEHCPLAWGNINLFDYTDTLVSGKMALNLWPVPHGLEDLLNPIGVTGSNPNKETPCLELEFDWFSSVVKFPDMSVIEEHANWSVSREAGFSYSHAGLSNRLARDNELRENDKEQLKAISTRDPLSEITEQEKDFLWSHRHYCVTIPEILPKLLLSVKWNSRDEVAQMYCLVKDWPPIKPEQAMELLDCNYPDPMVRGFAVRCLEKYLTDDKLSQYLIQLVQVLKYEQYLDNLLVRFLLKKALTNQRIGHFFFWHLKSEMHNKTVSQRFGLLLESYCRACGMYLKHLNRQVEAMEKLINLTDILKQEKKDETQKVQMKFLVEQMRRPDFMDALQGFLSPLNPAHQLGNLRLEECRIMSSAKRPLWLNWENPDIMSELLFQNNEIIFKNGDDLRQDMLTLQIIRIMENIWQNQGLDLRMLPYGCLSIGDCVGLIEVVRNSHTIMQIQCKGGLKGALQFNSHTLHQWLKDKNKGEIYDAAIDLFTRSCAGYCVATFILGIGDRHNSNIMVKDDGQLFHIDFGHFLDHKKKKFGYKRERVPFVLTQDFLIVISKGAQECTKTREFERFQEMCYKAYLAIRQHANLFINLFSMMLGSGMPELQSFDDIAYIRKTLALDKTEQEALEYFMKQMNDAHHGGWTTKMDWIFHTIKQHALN
T2 sequence (P27986 whole entry partner): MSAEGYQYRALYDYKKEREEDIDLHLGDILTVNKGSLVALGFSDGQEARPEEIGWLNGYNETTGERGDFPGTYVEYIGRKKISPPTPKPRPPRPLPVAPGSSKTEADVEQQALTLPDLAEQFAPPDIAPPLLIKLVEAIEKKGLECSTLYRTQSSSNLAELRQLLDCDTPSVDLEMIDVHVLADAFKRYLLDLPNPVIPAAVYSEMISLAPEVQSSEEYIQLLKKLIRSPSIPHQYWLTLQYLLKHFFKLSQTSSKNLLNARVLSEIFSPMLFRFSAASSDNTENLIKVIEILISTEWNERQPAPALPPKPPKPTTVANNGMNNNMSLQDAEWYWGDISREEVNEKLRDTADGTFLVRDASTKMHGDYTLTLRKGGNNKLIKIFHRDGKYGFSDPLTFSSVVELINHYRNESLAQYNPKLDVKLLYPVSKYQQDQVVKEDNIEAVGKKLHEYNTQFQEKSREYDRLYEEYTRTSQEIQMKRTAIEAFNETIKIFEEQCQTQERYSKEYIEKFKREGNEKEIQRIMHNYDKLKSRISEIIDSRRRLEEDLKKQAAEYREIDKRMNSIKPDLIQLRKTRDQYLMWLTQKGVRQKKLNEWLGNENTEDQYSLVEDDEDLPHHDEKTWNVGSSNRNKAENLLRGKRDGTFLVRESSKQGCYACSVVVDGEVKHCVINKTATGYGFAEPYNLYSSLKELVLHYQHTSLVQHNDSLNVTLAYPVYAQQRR
T4 sequence (P48736 whole entry): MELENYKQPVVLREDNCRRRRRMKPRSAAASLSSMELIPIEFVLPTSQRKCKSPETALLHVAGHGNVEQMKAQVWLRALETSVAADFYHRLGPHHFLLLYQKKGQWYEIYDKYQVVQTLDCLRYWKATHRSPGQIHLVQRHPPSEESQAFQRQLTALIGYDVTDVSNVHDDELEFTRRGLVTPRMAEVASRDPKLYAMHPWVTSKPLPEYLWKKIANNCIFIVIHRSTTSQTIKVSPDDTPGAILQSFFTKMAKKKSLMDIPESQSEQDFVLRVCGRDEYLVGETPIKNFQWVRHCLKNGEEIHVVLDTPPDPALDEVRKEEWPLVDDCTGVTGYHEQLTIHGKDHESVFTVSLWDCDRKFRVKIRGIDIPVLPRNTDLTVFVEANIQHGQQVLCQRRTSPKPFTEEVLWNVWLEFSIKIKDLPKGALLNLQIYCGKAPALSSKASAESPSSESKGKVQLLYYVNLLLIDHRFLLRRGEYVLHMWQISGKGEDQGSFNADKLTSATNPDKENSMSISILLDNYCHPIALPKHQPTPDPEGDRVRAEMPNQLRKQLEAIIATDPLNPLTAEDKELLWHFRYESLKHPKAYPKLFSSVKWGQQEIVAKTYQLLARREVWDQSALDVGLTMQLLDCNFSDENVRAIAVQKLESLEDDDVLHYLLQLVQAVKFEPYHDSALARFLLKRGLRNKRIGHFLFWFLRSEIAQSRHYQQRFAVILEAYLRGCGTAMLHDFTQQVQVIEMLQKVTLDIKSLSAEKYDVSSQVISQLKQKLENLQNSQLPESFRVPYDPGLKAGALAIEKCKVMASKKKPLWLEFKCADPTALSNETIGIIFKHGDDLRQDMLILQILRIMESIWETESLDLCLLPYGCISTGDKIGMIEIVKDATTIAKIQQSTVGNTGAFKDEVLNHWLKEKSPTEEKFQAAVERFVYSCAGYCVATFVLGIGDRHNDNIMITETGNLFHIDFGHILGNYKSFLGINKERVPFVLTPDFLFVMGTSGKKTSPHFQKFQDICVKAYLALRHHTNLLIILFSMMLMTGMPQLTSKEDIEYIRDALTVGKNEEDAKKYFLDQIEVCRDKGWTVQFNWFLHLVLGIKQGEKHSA
T3 sequence (P42338 whole entry): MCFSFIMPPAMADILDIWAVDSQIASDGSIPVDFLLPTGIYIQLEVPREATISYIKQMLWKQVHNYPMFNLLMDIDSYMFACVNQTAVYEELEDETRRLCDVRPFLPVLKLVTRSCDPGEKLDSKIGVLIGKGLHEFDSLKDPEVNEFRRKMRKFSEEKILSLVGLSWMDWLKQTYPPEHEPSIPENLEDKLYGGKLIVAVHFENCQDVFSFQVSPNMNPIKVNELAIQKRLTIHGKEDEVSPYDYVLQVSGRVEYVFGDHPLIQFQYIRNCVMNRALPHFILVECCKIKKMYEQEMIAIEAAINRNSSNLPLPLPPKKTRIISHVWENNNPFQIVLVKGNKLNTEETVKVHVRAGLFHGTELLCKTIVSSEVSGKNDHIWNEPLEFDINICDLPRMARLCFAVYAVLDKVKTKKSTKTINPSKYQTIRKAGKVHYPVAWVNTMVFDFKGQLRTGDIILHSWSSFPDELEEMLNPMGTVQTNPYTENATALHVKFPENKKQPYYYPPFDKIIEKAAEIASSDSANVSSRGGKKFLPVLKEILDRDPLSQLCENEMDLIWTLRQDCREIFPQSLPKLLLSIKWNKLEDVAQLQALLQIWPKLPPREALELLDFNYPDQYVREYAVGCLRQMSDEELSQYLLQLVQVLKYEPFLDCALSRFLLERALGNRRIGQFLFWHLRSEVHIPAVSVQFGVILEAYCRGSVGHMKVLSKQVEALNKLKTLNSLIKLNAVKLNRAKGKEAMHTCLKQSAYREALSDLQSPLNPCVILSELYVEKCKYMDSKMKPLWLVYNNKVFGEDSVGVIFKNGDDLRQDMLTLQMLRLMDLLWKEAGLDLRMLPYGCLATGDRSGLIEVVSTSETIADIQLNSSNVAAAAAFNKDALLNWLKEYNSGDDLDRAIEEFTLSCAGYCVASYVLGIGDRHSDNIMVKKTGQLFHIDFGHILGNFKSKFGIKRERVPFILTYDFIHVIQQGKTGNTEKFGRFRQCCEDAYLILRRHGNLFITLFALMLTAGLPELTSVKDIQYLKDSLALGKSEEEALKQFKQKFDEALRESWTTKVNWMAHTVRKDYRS
T3 sequence (P27986 whole entry partner): as the sequence (P27986 whole entry partner) above
T5 sequence (O00329 whole entry): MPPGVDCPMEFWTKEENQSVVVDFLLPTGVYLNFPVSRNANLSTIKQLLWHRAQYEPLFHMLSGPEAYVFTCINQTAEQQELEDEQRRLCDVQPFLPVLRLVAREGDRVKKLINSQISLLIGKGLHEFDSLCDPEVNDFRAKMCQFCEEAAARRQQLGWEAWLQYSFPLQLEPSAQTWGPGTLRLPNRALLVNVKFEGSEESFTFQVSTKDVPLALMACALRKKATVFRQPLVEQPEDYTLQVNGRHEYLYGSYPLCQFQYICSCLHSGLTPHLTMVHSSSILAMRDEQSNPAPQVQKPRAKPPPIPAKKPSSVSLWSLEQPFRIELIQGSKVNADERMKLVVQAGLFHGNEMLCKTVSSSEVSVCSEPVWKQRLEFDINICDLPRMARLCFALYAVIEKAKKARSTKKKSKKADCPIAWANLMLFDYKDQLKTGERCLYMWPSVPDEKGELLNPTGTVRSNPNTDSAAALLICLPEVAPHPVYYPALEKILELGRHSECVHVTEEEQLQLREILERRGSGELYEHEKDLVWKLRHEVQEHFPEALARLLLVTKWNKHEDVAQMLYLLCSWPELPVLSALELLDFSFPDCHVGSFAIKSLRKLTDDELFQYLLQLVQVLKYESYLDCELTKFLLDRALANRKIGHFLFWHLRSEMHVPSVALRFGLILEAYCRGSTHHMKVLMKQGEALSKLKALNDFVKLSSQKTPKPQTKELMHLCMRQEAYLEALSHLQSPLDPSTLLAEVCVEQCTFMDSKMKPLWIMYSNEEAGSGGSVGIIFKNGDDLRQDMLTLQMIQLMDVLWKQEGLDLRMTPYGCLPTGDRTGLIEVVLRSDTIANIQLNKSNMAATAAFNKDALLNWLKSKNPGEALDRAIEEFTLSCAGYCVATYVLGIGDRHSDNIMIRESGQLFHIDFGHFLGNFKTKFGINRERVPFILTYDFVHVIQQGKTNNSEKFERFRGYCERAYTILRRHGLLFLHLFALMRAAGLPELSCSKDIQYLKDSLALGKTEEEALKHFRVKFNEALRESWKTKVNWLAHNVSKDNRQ
T5 sequence (P27986 whole entry partner): as the sequence (P27986 whole entry partner) above

Row | IC50 (mTOR) [µM] | IC50 (PI3K alpha (PI3Kα)) [µM] | IC50 (PI3K beta (PI3Kb)) [µM] | IC50 (PI3K gamma (PI3Kg)) [µM] | IC50 (PI3K delta (PI3Kd)) [µM] | IC50 [1] [µM] | IC50 [2] [µM] | Compound
1 | 0.1 to 1 | > 10 | > 10 | > 10 | > 10 | > 10 | < 0.1 | C[C@H]1COCCN1c1nc(-c2ccc(NC(=O)Nc3cccnc3)cc2)nc(-c2ccccc2S(C)(=O)=O)n1 [Example 3, (S)-1-(4-(4-(3-methylmorpholino)-6-(2-(methylsulfonyl)phenyl)-1,3,5-triazin-2-yl)phenyl)-3-(pyridin-3-yl)urea]
2 | 0.1 to 1 | > 10 | > 10 | > 10 | > 10 | > 10 | 0.1 to 1 | C[C@H]1COCCN1c1nc(-c2ccc(NC(=O)NC3COC3)cc2)nc(-c2ccccc2S(C)(=O)=O)n1 [Example 9, (S)-1-(4-(4-(3-methylmorpholin)-6-(2-(methylsulfonyl)phenyl)-1,3,5-triazin-2-yl)phenyl)-3-(oxetan-3-yl)urea]
3 | < 0.1 | > 10 | > 10 | > 10 | > 10 | > 10 | < 0.1 | CS(=O)(=O)c1ccccc1-c1nc(-c2ccc(NC(=O)NC3CC3)cc2)nc(N2CC3CCC(C2)O3)n1 [Example 11, 1-(4-(4-(8-oxa-3-azabicyclo[3.2.1]octan-3-yl)-6-(2-(methylsulfonyl)phenyl)-1,3,5-triazin-2-yl)phenyl)-3-cyclopropylurea]
4 | 0.1 to 1 | > 10 | > 10 | > 10 | > 10 | > 10 | 0.1 to 1 | CS(=O)(=O)c1ccccc1-c1nc(-c2ccc(NC(=O)NC3CC3)cc2)nc(N2CCOCC2)n1 [Example 12, 1-cyclopropyl-3-(4-(4-(2-(methylsulfonyl)phenyl)-6-morpholino-1,3,5-triazin-2-yl)phenyl)urea]
5 | 0.1 to 1 | > 10 | > 10 | > 10 | > 10 | > 10 | < 0.1 | C[C@@H]1COCCN1c1nc(-c2ccc(NC(=O)NC3CC3)cc2)nc(-c2ccccc2S(C)(=O)=O)n1 [Example 13, (R)-1-cyclopropyl-3-(4-(4-(3-methylmorpholino)-6-(2-(methylsulfonyl)phenyl)-1,3,5-triazin-2-yl)phenyl)urea]
6 | 0.1 to 1 | > 10 | > 10 | > 10 | > 10 | > 10 | < 0.1 | CC(C)NC(=O)Nc1ccc(-c2nc(-c3ccccc3S(C)(=O)=O)nc(N3CCOC[C@@H]3C)n2)cc1 [Example 15, (S)-1-isopropyl-3-(4-(4-(3-methylmorpholino)-6-(2-(methylsulfonyl)phenyl)-1,3,5-triazin-2-yl)phenyl)urea]
7 | 0.1 to 1 | > 10 | > 10 | > 10 | > 10 | > 10 | < 0.1 | CCS(=O)(=O)c1ccccc1-c1nc(-c2ccc(NC(=O)NC3CC3)cc2)nc(N2CCOC[C@@H]2C)n1 [Example 17, (S)-1-cyclopropyl-3-(4-(4-(2-(ethylsulfonyl)phenyl)-6-(3-methylmorpholino)-1,3,5-triazin-2-yl)phenyl)urea]
8 | 1 to 10 | > 10 | > 10 | > 10 | > 10 | > 10 | – | C[C@H]1COCCN1c1nc(-c2ccc(NC(=O)NCCC(F)(F)F)cc2)nc(-c2ccccc2S(C)(=O)=O)n1 [Example 31, (S)-1-(4-(4-(3-methylmorpholino)-6-(2-(methylsulfonyl)phenyl)-1,3,5-triazin-2-yl)phenyl)-3-(3,3,3-trifluoropropyl)urea]
9 | > 10 | > 10 | > 10 | > 10 | > 10 | > 10 | – | C[C@H]1COCCN1c1nc(-c2ccc(NC(=O)NCCC(O)C(F)(F)F)cc2)nc(-c2ccccc2S(C)(=O)=O)n1 (stereo partly drawn) [Example 38, 1-(4-(4-((S)-3-methylmorpholino)-6-(2-(methylsulfonyl)phenyl)-1,3,5-triazin-2-yl)phenyl)-3-(4,4,4-trifluoro-3-hydroxybutyl)urea]

Row | Compound | IC50 (mTOR) [µM] | IC50 (PI3K alpha (PI3Kα)) [µM] | IC50 (PI3K beta (PI3Kb)) [µM] | IC50 (PI3K gamma (PI3Kg)) [µM] | IC50 (PI3K delta (PI3Kd)) [µM] | IC50 [1] [µM] | IC50 [2] [µM]
10 | CS(=O)(=O)c1ccccc1-c1nc(-c2ccc(NC(=O)NC3CC3)cc2)nc(N2C3CCC2COC3)n1 [Example 16, 1-(4-(4-(3-oxa-8-azabicyclo[3.2.1]octan-8-yl)-6-(2-(methylsulfonyl)phenyl)-1,3,5-triazin-2-yl)phenyl)-3-cyclopropylurea] | 0.1 to 1 | > 10 | > 10 | > 10 | > 10 | > 10 | < 0.1
